For assay [1], the system named is PC12 cells. Put plainly: PC12 cell differentiation assay (neurite outgrowth). It counts as cell-based. Particulars: Rattus norvegicus, PC-12, PC12 cells in N2 medium, 24 hours, neurites scored. How it is done:
Four trihydroxyflavones (THF) and three dihydroxyflavones (DHF) which lack one or two, respectively, of the hydroxyl groups found in fisetin were tested for their ability to induce the differentiation of PC12 cells. Differentiation was assessed by scoring neurite outgrowth (Sagara et al., J. Neurochem., 90:1144-1155, 2004). […]
PC12 cells in N2 medium were treated with flavonoids for 24 hours at which time the cells were scored for the presence of neurites. PC12 cells produce neurites much more rapidly when treated in N2 medium than when treated in regular growth medium (Kimura et al., J. Cell Biol., 116:777-83, 1992). For each treatment, 100 cells in each of three separate fields were counted. Cells were scored positive if one or more neurites>1 cell body diameter in length were observed.

The subject of assay [2] is HT22 cells. The assay can be described thus: Protection of HT22 cells from oxidative glutamate toxicity (MTT assay). The assay is classed as cell-based, mouse. The text has this:
Fisetin is effective at protecting nerve cells from oxidative stress-induced death (Ishige et al., Free Radic. Biol. Med., 30:433-446, 2001). This Example illustrates the structure-activity relationship between fisetin derivatives and neuroprotection in a model of oxidative glutamate toxicity using mouse HT22 cells. This pathway of programmed cell death is initiated by the addition of glutamate to the extracellular medium. Glutamate inhibits the uptake of cystine which is required for glutathione (GSH) biosynthesis, resulting in the depletion of GSH in neurons (for review see Tan et al., Curr. Top. Med. Chem., 1:497-506, 2001). Subsequently, this decrease in cellular GSH results in the production of reactive oxygen species (ROS) by mitochondria. The ROS accumulation then causes Ca^+2 influx from the extracellular medium which leads to cell death.
HT22 cells were untreated (Ct) or treated with 10 μM fisetin, 25 μM 3,3′-DHF, 25 μM 3,4′-DHF, 2.5 μM 3′,4′-DHF, 2.5 μM 3,3′,4′-THF 25 μM 3,7,3′-THF, 25 μM 3,7,4′-THF or 10 μM 7,3′,4′-THF in the presence of 5 mM glutamate±50 μM PD98059. Twenty four (24) hours later cell survival was measured by the MTT assay.
HT22 cells were untreated (Ct) or treated with 10 μM fisetin, 25 μM 3,3′-DHF. […] Protection by all of the other flavonoids was unaffected by BSO.
Cell viability was determined by a modified version of the 3-(4,5-dimethylthiazol-2-yl)-2,5-diphenyl tetrazolium bromide (MTT) assay based on the standard procedure (Hansen et al., J. Immunol. Meth., 119:203-10, 1989). Briefly, cells were seeded onto 96-well microtiter plates at a density of 5×10^3 cells per well. The next day, the medium was replaced with DMEM supplemented with 7.5% DFCS and the cells were treated with the different flavonoids alone or in the presence of 5 mM glutamate. Twenty four hours later, the medium in each well was aspirated and replaced with fresh medium containing 2.5 μg/ml MTT. After 4 hours of incubation at 37° C., cells were solubilized with 100 μl of a solution containing 50% dimethylformamide and 20% SDS (pH 4.7). The absorbance at 570 nm was measured on the following day with a microplate reader (Molecular Devices). Results obtained from the MTT assay correlated directly with the extent of cell death as confirmed visually. Controls employing wells without cells were used to determine the effects of the agents upon the assay chemistry.

The nature of assay [3]: Trolox Equivalent Activity Concentration (ABTS decolorization assay). Particulars: Trolox as reference. How it is done:
To determine if the protection seen with the different fisetin derivatives correlated with their antioxidant properties, their Trolox Equivalent Activity Concentration (TEAC) values were determined. In this procedure, a compound is compared to Trolox, a water-soluble vitamin E analog, for its ability to reduce the radical cation of ABTS in aqueous solution. As reported previously, fisetin has a TEAC value of ˜3 (Table II). None of the derivatives had TEAC values in this range despite, in some cases, showing better protection against oxidative stress-induced death. Thus, there was no correlation with antioxidant activity as defined by TEAC value and protection in this system.
TEAC values for the flavonoids were determined according to (Re et al. Free Rad. Biol. Med., 26:1231-7, 1999) but modified for a plate reader. Briefly, 250 μl of 2,2′-azinobis(3-ethylbenzothiazoline 6-sulfonate)(ABTS) treated overnight with potassium persulfate and diluted to an OD of ˜0.7 at 734 nm was added to 2.5 μl of a flavonoid solution in ethanol. The change in absorbance due to the reduction of the ABTS radical cation was measured at 734 nm for 4 minutes. To calculate the TEAC, the gradient of the plot of the percentage inhibition of absorbance vs. concentration for the flavonoid in question is divided by the gradient of the plot for Trolox.

Assay [4] relates to GSH. Put plainly: Total cellular GSH levels in HT22 cells. The assay is classed as cell-based, mouse. Particulars: 8 hours. Here is the method: The effects of fisetin derivatives on cellular GSH levels was then determined. HT22 cells were untreated (Ct) or treated with 10 μM fisetin, 25 μM 3,3′-DHF, 25 μM 3,4′-DHF, 2.5 μM 3′,4′-DHF, 2.5 μM 3,3′,4′-THF, 25 μM 3,7,3′-THF, 25 μM 3,7,4′-THF or 10 μM 7,3′,4′-THF alone or in the presence of 5 mM glutamate. After 8 hours cellular levels of total GSH were determined as described in Example 4. The GSH level of the control sample (31.5±10 nmoles/mg protein) was taken as 100%.
Total intracellular GSH/GSSG was determined using whole cell lysates from untreated, glutamate treated, flavonoid treated and glutamate plus flavonoid treated cells as described (Maher and Hanneken, Invest. Opthalmol. Vis. Sci., 46:749-57, 2005, herein incorporated by reference as to the method) and normalized to total cellular protein.

The test system of assay [5] is ERK. Conditions: Vanhoutte et al. 1999; English & Sweatt 1997; cited from earlier work.
Assay [6] deals with Male C57Bl/6J mice. The assay can be described thus: Object recognition task. The assay is classed as in vivo. Particulars: oral, dose not given; vs vehicle. Here is the method:
The effect of fisetin, 3,3′,4′-THF, and apigenin (5,7,4′-THF) on memory was tested in mice using an object recognition task (Ennaceur and Delacour, Behav. Brain Res., 31:47-59, 1988). Among the alternatives available for testing memory, this assay has proven very effective for measuring CREB-dependent functions (Prickaerts et al., Neurosci., 113:351-61, 2002; Bourtchouladze et al., Proc. Natl. Acad. Sci. USA, 100:10518-22, 2003). In this test, mice are presented with two identical objects during the training period which they explore for a fixed time period. To test for memory, mice are presented one day later with two different objects, one of which was presented previously during the training and is thus familiar to the mice, and the other that is novel. The better a mouse remembers the familiar object, the more time it will spend exploring the novel object. To test the effects of fisetin, 3,3′,4′-THF, or apigenin (5,7,4′-THF) in this memory task, the respective compound was administered orally to the mice before the start of the training period. Rolipram, a phosphodiesterase inhibitor that potentiates memory in this assay (Bourtchouladze et al., Proc. Natl. Acad. Sci. USA, 100:10518-22, 2003), requires intraperitoneal injection and was used as a positive control.
Male C57Bl/6J mice (Jackson Laboratories) were used and the testing was done by PsychoGenics (Tarrytown, N.Y.). All mice were acclimated to the colony room for at least 2 weeks prior to testing and were tested at an average age of 8 weeks. Mice were randomly assigned across treatment groups with 10 mice in each group. For each dose tested, a 10× solution of fisetin was prepared in 95% ethanol and then diluted with 4 volumes polyethylene glycol 660 hydroxystearate (Solut HS15 from BASF) and 5 volumes phosphate buffered saline. The vehicle was contained the identical ratios of ethanol, Solut HS15 and phosphate buffered saline. All were administered orally 60 minutes prior to training at a volume of 10 ml/kg body weight. Rolipram was dissolved in 10% DMSO and administered intraperitoneally 20 minutes prior to training. The test was performed as previously described by Bourtchouladze et al. (Proc. Natl. Acad. Sci. USA, 100:10518-22, 2003). Briefly, on Day 1 mice were habituated to a circular open field arena for one hour in cage groups of four. Twenty-four (24) hours later, individual mice were placed back in the same arena which now contained two identical objects for a 15 minutes training trial. […] Each animal's test trial was recorded and the first 10 minutes of each session were scored. […] Data were analyzed by a one-way ANOVA followed by post-hoc comparisons with Fisher's test. […]

In assay [7] the test system is cAMP. Put plainly: cAMP levels in hippocampal slices (Scintillation Proximity Assay). It counts as cell-based. How it is done:
Hippocampal slices were treated with fisetin using the conditions where maximal stimulation of CREB phosphorylation and facilitation of LTP were observed. Briefly, hippocampal slices in ACSF were treated with 1 μM fisetin for 5 minutes (fisetin) or 3 μM rolipram for 30 minutes (rolipram) and then either immediately frozen or treated with […] forskolin for an additional 15 minutes (rolipram+forskolin; fisetin+forskolin) prior to freezing. Additional slices were treated only with 5 μM forskolin for 15 minutes (forskolin). Forskolin, an activator of adenylyl cyclase, and rolipram were used as positive controls. The levels of cAMP in the slices were measured using a Scintillation Proximity Assay and presented as pmole/mg protein±S.D.
(In general: Cyclic AMP is a second messenger, typically raised through Gs and lowered through Gi signalling.)

The EC50 is the midpoint of the concentration-response curve. Turning to `O=c1cc(-c2ccc(O)c(O)c2)oc2cc(O)ccc12` [7,3′,4′-THF, 3′,4′,7-trihydroxyflavone], the EC50 in assay [1] (read-out: EC50 (μM), induction of PC12 cell differentiation) was found to be 10 µM; in assay [2] (Mus musculus, HT-22, 24 h, HT22 cells, 5 mM glutamate, 24 hours, MTT assay, read-out: EC50 (μM), protection from oxidative-stress induced death), 5 µM. Moreover, the Emax is 50 to 60% in assay [1] (read-out: Maximal Efficacy, induction of PC12 cell differentiation) and over 80% in assay [2] (Mus musculus, HT-22, HT22 cells, 5 mM glutamate, 24 hours, MTT assay, read-out: Maximal Efficacy, protection from oxidative-stress induced death). Further, the “effect of higher levels of BSO on protection” value in assay [2] (5 mM glutamate + 1 mM BSO, 24 hours, MTT) is reported as “reduced protection”. Moreover, the “protection from oxidative stress-induced death” value in assay [2] (HT22 cells, glutamate) was “equal to or more effective than fisetin”. In addition, the TEAC in assay [3] came to 0.89 ± 0.04. The “GSH levels in the presence of oxidative stress” value in assay [4] (5 mM glutamate) is “could not maintain GSH levels”. Further, in assay [4] (flavonoid alone), the “basal levels of GSH” value is reported as “raised the basal levels of GSH”.
Regarding `CN[C@H](CC(=O)O)C(=O)O` [NMDA], in assay [5], the “increase in ERK phosphorylation reported following treatment of slices” value is about 2.5 fold.
Consider `O=c1cc(-c2ccc(O)cc2)oc2cc(O)cc(O)c12` [apigenin, reference compound], for which the object recognition result in assay [6] was “did not exhibit significantly better object recognition”.
On to `COc1ccc(C2CNC(=O)C2)cc1OC1CCCC1` (stereo not shown) [rolipram, reference compound], for which the “effect on cAMP levels by itself” value in assay [7] (1 μM fisetin 5 minutes, 3 μM rolipram 30 minutes) was “modestly increased”. For the same compound, the “potentiation of the effect of forskolin on cAMP levels” value in assay [7] (then 5 μM forskolin for 15 minutes) is on record as “significantly potentiated”.

The values are drawn from patent publication US7897637B2, “Methods of using flavonoids to enhance memory” (The Salk Institute for Biological Studies, priority 2006, dated 2011).
